For series [1] the following is noted: rat, in vivo, iv, 1 mg/kg.
The conditions of series [2]: rat, in vivo, iv, 1 mg/kg. The source holds these as a separate data set.
The conditions of series [3]: rat, in vivo, iv, 1 mg/kg. The source holds these as a separate data set.
For series [4] the following is noted: rat, in vivo, iv, 1 mg/kg. The source holds these as a separate data set.
For series [5] the following is noted: rat, in vivo, iv, 1 mg/kg. This is another data set of the same source.
The conditions of series [6]: rat, in vivo, iv, 1 mg/kg. The source holds these as a separate data set.
Series [7] in a line: in vivo. As to conditions: Sprague-Dawley, rat, po, 10 mg/kg.
Series [8] is described as follows: in vivo. As to conditions: Sprague-Dawley, rat, po, 10 mg/kg. This is another data set of the same source.
Series [9] in a line: in vivo. Conditions: Sprague-Dawley, rat, po, 10 mg/kg. This is another data set of the same source.
Series [10] can be described thus: in vivo. As to conditions: Sprague-Dawley, rat, po, 10 mg/kg. This is another data set of the same source.
Series [11] in a line: in vivo. As to conditions: Sprague-Dawley, rat, po, 10 mg/kg. The source holds these as a separate data set.
Series [12] in a line: in vivo. As to conditions: Sprague-Dawley, rat, po, 10 mg/kg. The source holds these as a separate data set.
Series [13] can be described thus: in vitro. As to conditions: mouse, liver microsomes. Background: Liver microsomes are a subcellular fraction often used to study metabolism.
Series [14] can be described thus: in vitro. As to conditions: rat, liver microsomes.
Series [15] can be described thus: in vitro. As to conditions: beagle, dog, liver microsomes.
Series [16] is described as follows: in vitro. Conditions: cynomolgus monkey, liver microsomes.
A short description of series [17]: in vitro. As to conditions: human, liver microsomes.
Series [18] can be described thus: in vitro. As to conditions: mouse, plasma.
Series [19] in a line: in vitro. As to conditions: rat, plasma.
Series [20] is described as follows: in vitro. As to conditions: beagle, dog, plasma.
A short description of series [21]: in vitro. As to conditions: cynomolgus monkey, plasma.
Series [22] can be described thus: in vitro. Conditions: human, plasma.
For series [23] the following is noted: rat, in vivo, po, 10 mg/kg.
For series [24] the following is noted: rat, in vivo, po, 10 mg/kg. The source holds these as a separate data set.
For series [25] the following is noted: rat, in vivo, po, 10 mg/kg. This is another data set of the same source.
The conditions of series [26]: rat, in vivo, po, 10 mg/kg. This is another data set of the same source.

In turn, `CC#CC(=O)Nc1cc(-c2cc3c(cn2)cc(-c2c(Cl)c(OC)cc(OC)c2Cl)c(=O)n3CC)c(OC)cc1N1C[C@H]2C[C@@H]1CO2` had a t1/2 in [1] of 2 min. The Cmax (in general, the maximum level reached in the sampled fluid or tissue) is 1836.2 ng/mL in series [2] and 3650 ng/mL in series [10]. Moreover, in [3], the AUCt was 2609.6 ng·h/mL. Further, the “MRT(t)” value in series [4] stood at 1.8 h. The same molecule yielded a CL in series [5] of 0.4 L/h/kg. For the same molecule, in [6], the Vd – broadly, a proportionality between amount in the body and measured concentration, not a real space – was found to be 1.1 L/kg. For the same molecule, the AUC(0-t) (in general, the area under the concentration-time curve up to a stated or last time point) in series [7] was found to be 14400 ng·h/mL. Besides, the half-life (commonly how long it takes for the measured level to halve) came out at 2 min in series [8]; 44.1 min in [13]; 72.9 min in series [14]; 27.3 min in series [15]; 13.3 min in [16]; 40.1 min in series [17]. The half-life is 200 min in [18]; greater than 289 min in series [19]; greater than 289 min in [20]; greater than 289 min in series [21]; 286 min in series [22]. In addition, the Tmax – broadly, the time at which the peak concentration occurs – in [9] stood at 1.4 h. Besides, in [11], the MRT last (commonly the average time that molecules of a dose stay in the body) worked out at 2.4 h. Moreover, the bioavailability (in general, dose-corrected exposure relative to a reference, in per cent) in series [12] was 55.4%.
As to `C=CC(=O)N[C@H]1CCOC[C@H]1Nc1ncc2cc(-c3c(Cl)c(OC)cc(OC)c3Cl)ccc2n1` [FISOGATINIB], the AUCt came to 8155.2 ng·h/mL in series [23] and 1023.1 ng·h/mL in series [3]. In addition, the t1/2 is 1.2 min in series [24] and 1 min in series [1]. Further, the Tmax in series [25] turned out to be 30 min. Also, the Cmax in [26] stood at 2570.9 ng/mL; in [2], 1161 ng/mL. For the same molecule, the “MRT(t)” value in [4] came out at 1 h. The molecule further showed a CL in series [5] of 1 L/h/kg. In series [6], this molecule yielded a Vd of 1.4 L/kg. Moreover, the MRT last in series [11] worked out at 1.8 h. This molecule also gave a bioavailability in series [12] of 79.7%. The half-life in series [13] was 20 min; in series [17], 25.2 min; in series [18] it was greater than 289 min; in series [19] it was greater than 289 min; in [20], greater than 289 min; in [21], greater than 289 min. This molecule yielded a half-life in series [22] greater than 289 min.

The values above are taken from ChEMBL document CHEMBL5154932, “Discovery of 1,6-Naphthyridin-2(1H)-one Derivatives as Novel, Potent, and Selective FGFR4 Inhibitors for the Treatment of Hepatocellular Carcinoma” (J Med Chem, 2022).
